In patent US20250019385A1, “SPIROCYCLIC ANNULATED 2-AMINO-3-CYANO THIOPHENES AND DERIVATIVES FOR THE TREATMENT OF CANCER” (Boehringer Ingelheim International GmbH, priority 2023, published 2025):

What was measured:
SK-CO-1 cells = experiment: SK-CO-1 CTG proliferation assay (120 h) (CRC, G12V); assay type: cell-based; settings: Homo sapiens
Protocol: (§1) SK—CO-1 cells (ATCC HTB-39) are dispensed into black 384-well plates, flat and clear bottom (Greiner, PNr. 781091) at a density of 500 cells per well in 60 μl EMEM (Sigma M5650)+10% FCS (fetal calf serum, HyClone, SH30084.03). Cells are incubated overnight at 37° C. in a humidified tissue culture incubator at 5% CO2. Compounds (10 mM stock in DMSO) are added at logarithmic dose series using the ECHO acoustic liquid handler system (Beckman Coulter), normalizing for added DMSO and including DMSO controls. All compound treatments are performed in technical duplicates. For the TO time point measurement, untreated cells are analyzed at the time of compound addition. Plates are incubated for 120 h, and cell viability is measured using CellTiter-Glo luminescent cell viability reagent (Promega product code G7570). Viability (stated as percent of control) is defined as relative luminescence units RLU of each well divided by the RLU of cells in DMSO controls. IC50 values are determined from viability measurements by non-linear regression using a four-parameter model.
(§2) IC50 values of representative compounds according to the invention measured with these assays in the indicated cell lines are presented in Table 46.

Ba/F3 cells KRAS G12C = experiment: Ba/F3 proliferation assay (KRAS G12C); assay type: cell-based; settings: Mus musculus, BaF3, 72 h, AlamarBlue viability
Protocol: Ba/F3 cells are ordered from DSMZ (ACC300, Lot17) and grown in RPMI-1640 (ATCC 30-2001)+10% FCS+10 ng/mL IL-3 at 37° C. in 5% […] atmosphere. Plasmids containing KRASG12 mutants (i.e. […], G12C, G12V) are obtained from GeneScript. To generate KRASG12-dependent Ba/F3 models, Ba/F3 cells are transduced with retroviruses containing vectors that harbor KRASG12 isoforms. Platinum-E cells (Cell Biolabs) are used for retrovirus packaging. Retrovirus is added to Ba/F3 cells. To ensure infection, 4 μg/mL polybrene is added and cells are spinfected. Infection efficiency is confirmed by measuring GFP-positive cells using a cell analyzer. Cells with an infection efficiency of 10% to 20% are further cultivated and puromycin selection with 1 μg/mL is initiated. As a control, parental Ba/F3 cells are used to show selection status. Selection is considered successful when parental Ba/F3 cells cultures died. To evaluate the transforming potential of KRASG12 mutations, the growth medium is no longer supplemented with IL-3. Ba/F3 cells harboring the empty vector are used as a control. Approximately ten days before conducting the experiments, puromycin is left out.
For proliferation assays, Ba/F3 cells are seeded into 384-well plates at 1.5×1 (M cells/60 μL in growth media (RPMI-1640+10% FCS). Compounds (10 mM stock in DMSO) are added at logarithmic dose series using the ECHO acoustic liquid handler system (Beckman Coulter), normalizing for added DMSO and including DMSO controls. All compound treatments are performed in technical duplicates. For the TO time point measurement, untreated cells are analyzed at the time of compound addition. Treated cells are incubated for 72 h at 37° C. with 5% CO2 and cell viability is measured in the PerkinElmer Envision Multimode Reader using AlamarBlue™ (ThermoFisher) viability stain. Viability (stated as percent of control) is defined as relative fluorescence units RFU of each well divided by the RFU of cells in DMSO controls. IC50 values are determined from viability measurements by non-linear regression using a four-parameter model.

LOVO cells = experiment: LOVO CTG proliferation assay (120 h) (CRC, G13D); assay type: cell-based; settings: Homo sapiens
Protocol: as §1, with “LOVO” for “SK—CO-1”, “No. CCL-229)” for “HTB-39)”, “1000” for “500”, “DMEM” for “EMEM”, “D6429)+10%” for “M5650)+10%”
as §2

[1] = Metabolic (microsomal) stability assay, human liver microsomes (HLM); assay type: in vitro ADME; settings: 1 μM test compound, predicted clearance as percent of liver blood flow
Protocol: The metabolic degradation of the test compound is assayed at 37° C. with pooled liver microsomes (mouse (MLM), rat (RLM) or human (HLM)). The final incubation volume of 48 μL per time point contains TRIS buffer (pH 7.5; 0.1 M), magnesium chloride (6.5 mM), microsomal protein (0.5 mg/mL for mouse/rat, 1 mg/mL for human specimens) and the test compound at a final concentration of 1 μM. Following a short preincubation period at 37° C., the reactions are initiated by addition of 12 μL beta-nicotinamide adenine dinucleotide phosphate, reduced form (NADPH, 10 mM) and terminated by transferring an aliquot into solvent after different time points (0, 5, 15, 30, 60 min). Additionally, the NADPH-independent degradation is monitored in incubations without NADPH, terminated at the last time point by addition of acetonitrile. The quenched incubations are pelleted by centrifugation (4,000 rpm, 15 min). An aliquot of the supernatant is assayed by LC-MS/MS to quantify the concentration of parent compound in the individual samples.
In vitro intrinsic clearance (CLint,in vitro) is calculated from the time course of the disappearance of the test drug during the microsomal incubation. Each plot is fitted to the first-order elimination rate constant as C(t)=C0*exp(−ke*t), where C(t) and C0 are the concentration of unchanged test drug at incubation time t and that at preincubation and ke is the disappearance rate constant of the unchanged drug. Subsequently, CLint, in vitro (μL min^−1·amount protein) values are converted to predicted CLint,in vivo (mL min^−1·kg^−1) from incubation parameters according to the equation CLint, in vivo=CLint, in vitro×(incubation volume (mL)/amount protein (mg))×(amount protein (mg)/g liver tissue)×(liver weight/body wt.).
For better across species comparison the predicted clearance is expressed as percent of the liver blood flow [% QH] (mL min^−1·kg^−1) in the individual species. In general, high stability (corresponding to low % QH) of the compounds across species is desired.

IC50 (SK-CO-1 cells) [nM] | IC50 (Ba/F3 cells KRAS G12C) [nM] | IC50 (LOVO cells) [nM] | HLM QH [1] [%] | SMILES
362 | 109 | 49 | 31 | C[C@H](Oc1nc(-c2onc3c2CCC[C@@]32CCCc3sc(N)c(C#N)c32)nc2c1n(C)c(=O)n2[C@@H]1CC2CCC1O2)[C@@H]1CCCN1C (stereo partly shown) [I-18]
190 | 406 | 60 | <24 | C[C@H](Oc1nc(-c2onc3c2CCC[C@@]32CCCc3sc(N)c(C#N)c32)nc2c1n(C)c(=O)n2[C@H]1CCC[C@@H]1O)[C@@H]1CCCN1C [I-19]
3 | 4 | 6 | 26 | C[C@H](Oc1nc(-c2onc3c2CCC[C@@]32CCCc3sc(N)c(C#N)c32)nc2c1n(C)c(=O)n2[C@@H]1CCOC1)[C@@H]1CCCN1C [I-20]
5 | 8 | 9 | 45 | CCn1c(=O)n([C@@H]2CCOC2)c2nc(-c3onc4c3CCC[C@@]43CCCc4sc(N)c(C#N)c43)nc(O[C@@H](C)[C@@H]3CCCN3C)c21 [I-21]
9 | 10 | 43 | 56 | C[C@H](Oc1nc(-c2onc3c2CCC[C@@]32CCCc3sc(N)c(C#N)c32)nc2c1n(C)c(=O)n2[C@@H]1CCOC1)[C@@H]1C[C@@H](F)CN1C [I-22]
6 | 4 | 10 | 77 | CO[C@H]1CCN(C)[C@@H]1[C@H](C)Oc1nc(-c2onc3c2CCC[C@@]32CCCc3sc(N)c(C#N)c32)nc2c1n(C)c(=O)n2[C@@H]1CCOC1 [I-23]
75 | 59 | 235 | <24 | C[C@H](Oc1nc(-c2onc3c2CCC[C@@]32CCCc3sc(N)c(C#N)c32)nc2c1n(C)c(=O)n2C1COC1)[C@@H]1CCCN1C [I-24]
11 | 12 | 55 | 33 | C[C@H](Oc1nc(-c2onc3c2CCC[C@@]32CCCc3sc(N)c(C#N)c32)nc2c1n(C)c(=O)n2[C@@H]1CCOC1)C12CCCN1CCC2 [I-25]
10 | 3 | 11 | 42 | C[C@H](Oc1nc(-c2onc3c2CCC[C@@]32CCCc3sc(N)c(C#N)c32)nc2c1n(C)c(=O)n2[C@@H]1CCOC1)[C@@H]1CC[C@H](C)N1C [I-26]
55 | 26 | 52 | 58 | C[C@H](Oc1nc(-c2onc3c2CCC[C@@]32CCCc3sc(N)c(C#N)c32)nc2c1n(C)c(=O)n2[C@@H]1CCOC1)[C@@H]1C[C@H](F)CN1C [I-27]
67 | 26 | 105 | 52 | C[C@H](Oc1nc(-c2onc3c2CCC[C@@]32CCCc3sc(N)c(C#N)c32)nc2c1n(C)c(=O)n2[C@@H]1CCOC1)[C@@H]1C[C@@H]2C[C@@H]2N1C [I-28]
1 | 2 | 4 | <24 | C[C@H](Oc1nc(-c2onc3c2CCC[C@@]32CCCc3sc(N)c(C#N)c32)nc2c1n(C)c(=O)n2[C@@]12COC[C@@H]1C2)[C@@H]1CCCN1C [I-29]
11 | 11 | 7 | 25 | CCn1c(=O)n([C@@H]2CCCOC2)c2nc(-c3onc4c3CCC[C@@]43CCCc4sc(N)c(C#N)c43)nc(O[C@@H](C)[C@@H]3CCCN3C)c21 [I-30]
94 | 52 | 36 | <24 | CO[C@H]1C[C@@H](n2c(=O)n(C)c3c(O[C@@H](C)[C@@H]4CCCN4C)nc(-c4onc5c4CCC[C@@]54CCCc5sc(N)c(C#N)c54)nc32)C1 [I-31]
43 | 23 | 25 | 88 | CC(C)n1c(=O)n([C@@H]2CCOC2)c2nc(-c3onc4c3CCC[C@@]43CCCc4sc(N)c(C#N)c43)nc(O[C@@H](C)[C@@H]3CCCN3C)c21 [I-32]
911 | 1600 | 891 | 48 | CCn1c(=O)n([C@@H]2CCCOC2)c2nc(-c3onc4c3CCC[C@@]43CCCc4sc(N)c(C#N)c43)nc(OC[C@@]34CCCN3C[C@H](F)C4)c21 [I-33]
273 | 1180 | 1340 | <24 | CCn1c(=O)n([C@@H]2CCCOC2)c2nc(-c3onc4c3CCC[C@@]43CCCc4sc(N)c(C#N)c43)nc(OCC34CCCN3CCC4)c21 [I-34]
185 | 177 | 120 | 53 | CCn1c(=O)n([C@@H]2CCCOC2)c2nc(-c3onc4c3CCC[C@@]43CCCc4sc(N)c(C#N)c43)nc(OCC3(CN4CCCC4)CC3)c21 [I-35]
14 | 31 | 9 | 37 | CCn1c(=O)n([C@@H]2CCCOC2)c2nc(-c3onc4c3CCC[C@@]43CCCc4sc(N)c(C#N)c43)nc(O[C@@H](C)C34CCCN3CCC4)c21 [I-36]
323 | 265 | 31 | <24 | C[C@H](Oc1nc(-c2onc3c2CCC[C@@]32CCCc3sc(N)c(C#N)c32)nc2c1N(C)C(=O)CN2[C@@H]1CCOC1)[C@@H]1CCCN1C [I-37]
32 | 33 | 114 | 28 | C[C@H](Oc1nc(-c2onc3c2CCC[C@@]32CCCc3sc(N)c(C#N)c32)nc2c1ncn2[C@@H]1CCOC1)[C@@H]1CCCN1C [I-38]
14 | 24 | 19 | 57 | Cc1nc2c(O[C@@H](C)[C@@H]3CCCN3C)nc(-c3onc4c3CCC[C@@]43CCCc4sc(N)c(C#N)c43)nc2n1[C@@H]1CCOC1 [I-39]
